The results in this text go back to patent US20240197666A1, “DITERPENOID COMPOUNDS THAT ACT ON PROTEIN KINASE C (PKC)” (K-Gen Therapeutics, Inc., priority 2021, published 2024).

Data set [1] in a line: Pharmacokinetic study, intravenous bolus injection in rats. The data set is classed as in vivo, rat. The note with it: for AUClast / C0 / CL / MRTInf / Vss / Vz / t1/2: rat plasma, bolus injection. As to the method:
Plasma samples were taken at 1 minute, 5 minutes, 15 minutes, 30 minutes, 1 hour, 2 hours, 4 hours, 7 hours, and 24 hours. The drug concentrations at each time point were determined by LC-MS. The results of drug concentrations and pharmacokinetic parameters are presented in the Table 6 and Table 7, respectively, below.

Data set [2] deals with MC38 tumors. Briefly: MC38 syngeneic model, efficacy and re-challenge. It counts as in vivo, mouse. To be noted: for Live Animal at Day 50: N 8. As to the method: 8 weeks old female C57B/J6J mice were implanted subcutaneously at the right flank with 3×10^5 MC38 mouse colon cancer cells. Mice were randomized into different treatment groups (see above) when tumors grew to an average mean tumor size of 50-80 mm^3. Tumor size was measured three times weekly in two dimensions using a caliper, and the volume was expressed in mm^3 using the formula: V=0.5a×b^2 where a and b are the long and short diameters of the tumor, respectively. Mice were monitored daily for clinical signs and body weights were measured twice per week. All groups tolerated drug treatments very well with less than 10% body weight loss. […] Scabs formed near the site of IT injection and the skin recovered with minimal scaring within 3-4 weeks.
For the efficacy portion of the study, the major endpoint was the animal survival, defined as time to death or euthanasia when tumors ≥2000 mm^3. The survive rate is the proportion of live animals in each group on a given day. A Kaplan-Meier analysis was performed to compare animal survival between vehicle and treated groups. P<0.05 was considered to be statistically significant. Another endpoint is tumor clearance, for which the mice were monitor for over 50 days after the start of the treatment.
To test if anti-tumor immunity was developed in the cured mice, the re-challenge portion of the study was conducted. The major endpoint was the tumor initiation of the re-implanted tumor cells. Tumor fee survive rate is the proportion of tumor fee mice and the mice whose tumor volumes were below 50 mm^3 in each group on a given day. A Mann-Whitney method was performed to analyze the tumor initiation rate at the end of the re-challenge study and P<0.05 was considered to be statistically significant.
MC38 cells (3×10^5) were re-implanted subcutaneously to the other flank (left flank) of the 8 tumor-eradicated mice (two from group 2, three each from groups 3 and 5). No MC38 tumors formed after 36 days in these 8 tumor-eradicated mice. To study the anti-tumor immunity further in the 8 tumor-eradicated mice, MC38 cells (3×10^5) and unrelated 3LL cells (lung cancer) (2×10^6) were re-implanted and implanted at opposite flanks in these mice. As control, five age-matched naïve mice were implanted with 3LL and MC38 tumor cells at opposite flanks. The re-challenge for control and K1K1-C1348101 groups were performed independently, but with same method and condition.

The mark [3] stands for this setting: re-challenge of 8 tumor-eradicated mice with 3LL cells.
Where [4] appears, read: re-challenge of 8 tumor-eradicated mice with MC38 cells.

For `CC1=C[C@H]2[C@@]3(O)[C@H](C)C[C@]4(OC(=O)[C@@H](N)CC5CCCCC5)[C@H]([C@@H]3C=C(CO)C[C@]2(O)C1=O)C4(C)C`, the “Concentration in Rat Plasma after Bolus Injection, Mean” value (from here on “Concentration in Rat Plasma”) in data set [1] (Dose 0.1 mg/kg iv, 0.0167 hour post dose) was determined as 216.0 ng/mL; in data set [1] (Dose 0.1 mg/kg iv, 0.0833 hour post dose), 49.2 ng/mL; in data set [1] (Dose 0.1 mg/kg iv, 0.25 hour post dose), 28.7 ng/mL; in data set [1] (Dose 0.1 mg/kg iv, 0.5 hour post dose) it was 19.4 ng/mL; in data set [1] (Dose 0.1 mg/kg iv, 1 hour post dose) it was 14.6 ng/mL; in data set [1] (Dose 0.1 mg/kg iv, 2 hour post dose), 5.0 ng/mL. Further, the “Concentration in Rat Plasma” value is recorded as 1.0 ng/mL in data set [1] (Dose 0.1 mg/kg iv, 4 hour post dose); under 1 ng/mL in data set [1] (Dose 0.1 mg/kg iv, 7 hour post dose); under 1 ng/mL in data set [1] (Dose 0.1 mg/kg iv, 24 hour post dose); 334.0 ng/mL in data set [1] (Dose 0.2 mg/kg iv, 0.0167 hour post dose); 102.0 ng/mL in data set [1] (Dose 0.2 mg/kg iv, 0.0833 hour post dose); 65.0 ng/mL in data set [1] (Dose 0.2 mg/kg iv, 0.25 hour post dose). Further, the “Concentration in Rat Plasma” value is reported as 43.6 ng/mL in data set [1] (Dose 0.2 mg/kg iv, 0.5 hour post dose); 37.6 ng/mL in data set [1] (Dose 0.2 mg/kg iv, 1 hour post dose); 29.1 ng/mL in data set [1] (Dose 0.2 mg/kg iv, 2 hour post dose); 6.0 ng/mL in data set [1] (Dose 0.2 mg/kg iv, 4 hour post dose); under 1 ng/mL in data set [1] (Dose 0.2 mg/kg iv, 7 hour post dose); under 1 ng/mL in data set [1] (Dose 0.2 mg/kg iv, 24 hour post dose). Besides, the AUClast in data set [1] (0.1 mg/kg) worked out at 48.3 ng·h/mL; in data set [1] (0.2 mg/kg) it was 119 ng·h/mL. Besides, the C0 in data set [1] (0.1 mg/kg) worked out at 314 ng/mL; in data set [1] (0.2 mg/kg), 450 ng/mL. In addition, the figures for the CL in data set [1] (0.1 mg/kg) and in data set [1] (0.2 mg/kg) were 32.9 mL/min/kg and 21.5 mL/min/kg, respectively. In addition, the MRTInf stood at 0.873 h in data set [1] (0.1 mg/kg) and 2.93 h in data set [1] (0.2 mg/kg). The Vss is listed as 1.73 L/kg in data set [1] (0.1 mg/kg) and 2.77 L/kg in data set [1] (0.2 mg/kg). The volume of distribution (Vz) in data set [1] (0.1 mg/kg) worked out at 2.44 L/kg; in data set [1] (0.2 mg/kg), 3.25 L/kg. Also, the t1/2 in data set [1] (0.1 mg/kg) was determined as 0.857 h; in data set [1] (0.2 mg/kg), 2.29 h.
In the case of `CC1=C[C@H]2[C@@]3(O)[C@H](C)C[C@]4(OC(=O)[C@H](N)CCCCCCc5ccccc5)[C@H]([C@@H]3C=C(CO)C[C@]2(O)C1=O)C4(C)C`, the “complete eradication of tumors” value in data set [2] (group 2 (5 mg/ml), 2 out of 8 tumors) was found to be 25%; in data set [2] (group 3 (20 mg/ml), 3 out of 8 tumors), 37.5%. The “% Increased Survival Time” value in data set [2] (group 2: 5 mg/ml, 20 μl it) turned out to be 45%; in data set [2] (group 3: 20 mg/ml, 20 μl) it was 23%. For the same compound, the “Increased Survival Time” value in data set [2] (group 2: 5 mg/ml, 20 μl it) was 9 days; in data set [2] (group 3: 20 mg/ml, 20 μl) it was 4.5 days. The “Median” value in data set [2] (group 2: 5 mg/ml, 20 μl it) was 29 days; in data set [2] (group 3: 20 mg/ml, 20 μl) it was 24.5 days. Besides, the “Live Animal at Day 50” value in data set [2] (group 2: 5 mg/ml, 20 μl it, D 0,1,2,7,8,9) was found to be 2; in data set [2] (group 3: 20 mg/ml, 20 μl, D 0,1,2) it was 3. The “Tumor initiation (mice)” value in data set [2] (setting [3]) came out at 8; in data set [2] (setting [4]) it was 0. Also, the “Tumor-free (mice)” value in data set [2] (setting [3]) was found to be 0; in data set [2] (setting [4]), 8.

A word on the Vss: it is a proportionality between amount in the body and measured concentration, not a real space. As a reminder, the Vz is a proportionality between amount in the body and measured concentration, not a real space.
